Reference: article PMC11678491, “Bis-Iridoid Glycosides and Triterpenoids from Kolkwitzia amabilis and Their Potential as Inhibitors of ACC1 and ACL” (Molecules, 2024)
Like-named read-outs stand apart in the source and are kept apart here.

Key:
[1] = target: acetyl CoA carboxylase 1 (ACC1) (Homo sapiens, UniProt Q13085); experiment: ACC1 inhibitory assay (ADP-Glo luminescence); type: biochemical
Procedure: (§1) The ACC1 and ACL inhibitory activity assay were conducted using ADP-Glo^TM luminescence assay reagents (Promega Biotech Co., Ltd, Beijing, China), which measure ACC1 or ACL activity by quantifying the amount of ADP generated in the enzymatic reaction. […] Reactions were conducted in each well for 30 min at room temperature. Following this, 2.0 μL of ATP was added to each well, and the mixture was incubated for 1 h at room temperature. Negative control wells, which lacked the protein kinase, substrate, and ATP, were also included in the kinase assay. After the enzymatic reaction, 2.5 μL of ADP-Glo reagent was added to each well to terminate the kinase reaction and deplete any unconsumed ATP within 1 h at room temperature. Finally, 5.0 μL of kinase detection reagent was added to each well and incubated for 1 h to convert ADP to ATP. The luminescence signal was measured using a PerkinElmer EnVision reader.

ATP-citrate lyase (ACL) = target: T1, ATP-citrate lyase (ACL) (Homo sapiens, UniProt P53396); experiment: ACL inhibitory assay (ADP-Glo luminescence); type: biochemical
T1 sequence (P53396 1-1101): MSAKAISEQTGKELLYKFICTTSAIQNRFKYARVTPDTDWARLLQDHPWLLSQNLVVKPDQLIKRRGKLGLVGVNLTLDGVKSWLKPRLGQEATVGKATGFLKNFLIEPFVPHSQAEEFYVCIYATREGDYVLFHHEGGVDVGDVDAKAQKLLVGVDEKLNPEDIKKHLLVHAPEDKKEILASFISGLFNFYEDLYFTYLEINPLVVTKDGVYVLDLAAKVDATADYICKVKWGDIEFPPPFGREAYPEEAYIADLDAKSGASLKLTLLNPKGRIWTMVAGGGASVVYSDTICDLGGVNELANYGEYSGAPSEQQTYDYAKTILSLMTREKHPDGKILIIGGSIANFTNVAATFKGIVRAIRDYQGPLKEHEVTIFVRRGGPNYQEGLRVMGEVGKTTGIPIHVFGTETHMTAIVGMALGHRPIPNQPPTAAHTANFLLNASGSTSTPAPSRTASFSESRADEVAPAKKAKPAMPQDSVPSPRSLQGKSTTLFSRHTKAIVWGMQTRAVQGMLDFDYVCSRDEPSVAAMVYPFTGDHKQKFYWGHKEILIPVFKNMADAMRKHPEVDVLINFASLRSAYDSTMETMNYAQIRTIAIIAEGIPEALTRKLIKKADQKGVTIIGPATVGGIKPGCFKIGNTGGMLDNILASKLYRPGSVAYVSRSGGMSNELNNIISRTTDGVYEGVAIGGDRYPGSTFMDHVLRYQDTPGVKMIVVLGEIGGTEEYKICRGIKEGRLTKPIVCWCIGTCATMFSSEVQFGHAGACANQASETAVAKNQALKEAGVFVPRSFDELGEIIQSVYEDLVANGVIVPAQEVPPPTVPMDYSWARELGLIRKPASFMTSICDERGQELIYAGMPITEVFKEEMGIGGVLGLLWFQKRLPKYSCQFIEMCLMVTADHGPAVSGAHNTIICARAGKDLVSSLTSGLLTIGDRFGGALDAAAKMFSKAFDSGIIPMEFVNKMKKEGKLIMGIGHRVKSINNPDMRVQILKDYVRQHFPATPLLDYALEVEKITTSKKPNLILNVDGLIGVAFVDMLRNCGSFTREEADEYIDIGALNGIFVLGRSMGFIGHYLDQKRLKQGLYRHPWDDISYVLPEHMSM
Procedure: as §1

[2] = Figure 5, mean ± standard deviation (SD) (n = 3), read-out: IC50 (ACC1)
[3] = mean ± SEM of triplicated experiments, read-out: IC50 ACC1
[4] = mean ± SEM of triplicated experiments
[5] = Figure 5, mean ± standard deviation (SD) (n = 3)

| SMILES | IC50 [1, 2] [µM] | IC50 [1, 3] [µM] | IC50 (ATP-citrate lyase (ACL); [4]) [µM] | IC50 [1] [µM] | IC50 (ATP-citrate lyase (ACL); [5]) [µM] |
| --- | --- | --- | --- | --- | --- |
| C=C[C@H]1[C@H](O[C@@H]2O[C@H](CO)[C@@H](O)[C@H](O)[C@H]2O)OC=C(C(=O)O[C@H]2C[C@@H]3C(C(=O)OC)=CO[C@@H](O[C@@H]4O[C@H](CO)[C@@H](O)[C@H](OC(=O)/C=C/c5ccc(O)c(O)c5)[C@H]4O)[C@@H]3[C@@H]2C)[C@H]1CC(OC)OC [Compound 2, Amabilioside B] | 9.64 ± 0.99 | 9.6 ± 1 |  |  |  |
| CC(=O)O[C@H]1CC[C@]2(C)[C@H]3CC=C4[C@@H]5[C@@H](C)[C@H](C)CC[C@]5(C(=O)O)CC[C@@]4(C)[C@]3(C)CC[C@H]2C1(C)C [Compound 17, 3β-acetyl-ursolic acid] | 10.3 ± 0.78 | 10.3 ± 0.8 | 2 ± 0.5 |  |  |
| COc1ccccc1[C@H](Cn1c(=O)n(C(C)(C)C(=O)O)c(=O)c2c(C)c(-c3ncco3)sc21)OC1CCOCC1 [ND 630, Firsocostat, reference compound] |  |  |  | 0.002 ± 0.0001 |  |
| COc1ccc(-c2ccccc2)cc1NS(=O)(=O)c1cc(Cl)cc(Cl)c1O [BMS 303141, reference compound] |  |  | 0.3 ± 0.1 |  |  |
| C=C[C@H]1[C@H](O[C@@H]2O[C@H](CO)[C@@H](O)[C@H](O)[C@H]2O)OC=C(C(=O)O[C@H]2C[C@@H]3C(C(=O)OC)=CO[C@@H](O)[C@@H]3[C@@H]2C)[C@H]1CC(OC)OC [Compound 8, lonicejaposide C] |  | > 20 | 3.6 ± 0.9 |  | 3.63 ± 0.91 |
| CC1(C)CC[C@]2(C(=O)O)CC[C@]3(C)C(=CC[C@@H]4[C@@]5(C)CC[C@H](O)[C@@](C)(COC(=O)/C=C/c6ccc(O)cc6)[C@@H]5CC[C@]43C)[C@@H]2C1 [Compound 31, (23E)-coumaroylhederagenin] |  | > 20 | 4.7 ± 1.3 |  | 4.69 ± 1.3 |
